Laboratory results published in patent publication US20250188088A1, “COMPOUND AND USE THEREOF” (ONQUALITY PHARMACEUTICALS CHINA LTD., priority 2022, published 2025).

What was measured:
[1] = tested on: rash caused by monoclonal EGFR inhibitors; assay: Treatment of rash caused by monoclonal EGFR inhibitors, topical ointment, rat model; format: in vivo; conditions: SD rats
Protocol: An Experiment to Verify the Treatment of Rash Caused by Monoclonal EGFR Inhibitors with Topical Administration of Compounds of the Present Application on a Rat Animal Model After the SD rats were fed and adapted for one week (about 200 g), the rats were divided into 10 rats per group. The hair on the back of rats was gently removed with an electric razor one day before the experiment, and then an administration test was carried out. The EGFR monoclonal antibody solution diluted with normal saline was injected via tail vein twice a week, and the injection rate and time were shown in Table 4; the treatment experiment was started at the time point when rats developed a rash after continuous administration for 1-2 weeks. The experiments were divided into the administration group with the compound of the present application and the control group. During the treatment experiment, monoclonal antibody EGFR inhibitors were injected twice a week. the administration group applied the compound ointment of the present application on the back (about 3 cm*3 cm) of rats every day, and the control group applied blank matrix ointment on the back (about 3 cm*3 cm); after application, the rats were fixed with a fixed cyclinder for about 4 hours, and then the rats were released, with the residual drug at the application site wiped off with clean water, and put back into the cage. […] Table 4 lists the animal experiment combinations of monoclonal antibody EGFR inhibitors and the compound ointment of the present application, as well as the corresponding experiment results (wherein, the value in the control rate column=the number of rats whose rash is milder in the administration group than that in the control group/the total number of rats in the administration group×100%).

[2] = tested on: rash caused by small molecule EGFR inhibitors; assay: Treatment of rash caused by small molecule EGFR inhibitors, topical ointment, rat model; format: in vivo, SD rats
Protocol: An Experiment to Verify the Treatment of Rash Caused by Small Molecule EGFR Inhibitors with Topical Administration of Compounds of the Present Application on a Rat Animal Model After the SD rats were fed and adapted for one week (about 200 g), the rats were divided into 10 rats per group. The hair on the back of rats was gently removed with an electric razor one day before the experiment, and then an intragastric administration test was carried out. EGFR inhibitors were dissolved in a sterile aqueous solution, and diluted with PBS buffer; the amount of each gavage was not more than 2 mL, and the dosage was shown in Table 3. […] The experiments were divided into the administration group with the compound of the present application and the control group. During the treatment experiment, EGFR inhibitors were intragastrically administered continuously every day. After the gavage, the administration group applied the compound ointment of the present application on the back (about 3 cm*3 cm) of rats, and the control group applied blank matrix ointment on the back (about 3 cm*3 cm); after application, the rats were fixed with a fixed cyclinder for about 4 hours, and then the rats were released, with the residual drug at the application site wiped off with clean water, and put back into the cage. The frequency of intragastric administration of EGFR inhibitors is shown in Table 3, but the compounds of the present application and blank ointment are applied only once a day. […] Table 3 lists the animal experiment combinations of various small molecule EGFR inhibitors and the compound ointment of the present application, as well as the corresponding experiment results (wherein, the value in the control rate column=the number of rats whose rash is milder in the administration group than that in the control group/the total number of rats in the administration group×100%).

[3] = tested on: rash caused by monoclonal EGFR inhibitors; assay: Prevention of rash caused by monoclonal EGFR inhibitors, topical ointment, rat model; format: in vivo, SD rats
Protocol: An Experiment to Verify the Prevention of Rash Caused by Monoclonal EGFR Inhibitors with Topical Administration of Compounds of the Present Application on a Rat Animal Model After the SD rats were fed and adapted for one week (about 200 g), the rats were divided into 10 rats per group. The hair on the back of rats was gently removed with an electric razor one day before the experiment, and then an administration test was carried out. The experiments were divided into the administration group with the compound of the present application and the control group. The EGFR monoclonal antibody solution diluted with normal saline was injected via the tail vein twice a week, and the injection rate and time are shown in Table 2. After injection, the administration group applied the compound ointment of the present application on the backs (about 3 cm*3 cm) of rats every day, and the control group applied blank matrix ointment (about 0.5 g) to the backs (about 3 cm*3 cm) of rats every day. After drug application, the rats were fixed with a fixed cyclinder for 4 h; after that, the rats were released and the residual drug at the application site was wiped off with clear water. Monoclonal antibody EGFR inhibitors were injected via the tail vein twice a week, and the compound of the present application and blank ointment were applied once a day until obvious rashes appeared in the control group. […] Table 2 lists the animal experiment combinations of various monoclonal antibody EGFR inhibitors and the compound ointment of the present application, as well as the corresponding experiment results (wherein, the value in the control rate column=the number of rats whose rash is milder in the administration group than that in the control group/the total number of rats in the administration group×100%).

[4] = tested on: skin contact delayed-type hypersensitivity; assay: Skin contact delayed-type hypersensitivity (DNFB) response test, ear swelling, topical ointment; format: in vivo; conditions: topical to ears, DNFB DTH, Balb/c mice, compared to blank ointment
Excerpt: Therapeutic Effect of Topical Administration of Compounds of the Present Application in Skin Contact Delayed-Type Hypersensitivity Response Test in Mice Delayed-type hypersensitivity (DTH) response in mouse skin is considered to be an effective model for clinical contact dermatitis and other T cell-mediated cutaneous immune diseases, such as atopic dermatitis and psoriasis. The DTH in mice shares the common features with these cutaneous immune diseases, including immunoinfiltration with an increase of inflammatory cytokines and hyperproliferation of keratinocytes. Balb/c mice were sensitized by topical administration of the antigen 2,4-dinitrofluorobenzene (DNFB) to the shaved back of mice on Days 0 and 1. On Day 5, the thickness of the ears was measured using an engineering micrometer. The measurement result was recorded and used as a baseline. The animals were then challenged with a total of 20 μL of DNFB (10 μL for the internal pinna and 10 μL for the external pinna) topically dosed to both ears at a concentration of 0.2%. The ears were measured again 24-72 hours after challenge. The compound ointment of the present application was applied topically to the ears of the animals throughout the allergic and challenge periods (Days −1˜7) or before or throughout the challenge period (generally Days 4˜7). The therapeutic effect was expressed by a reduction in ear swelling compared to that of the blank ointment. The compound causing a reduction of 20% or more was considered effective. Table 5 lists the skin contact delayed-type hypersensitivity experiment results in mice treated with the compound of the present application.

[5] = Cetuximab 102 mg/kg twice a week via tail vein, ointment 5.0 wt%, 10 days of drug application
[6] = EAI045 80 mg/kg once a day, 8 dosing modelling days, ointment 1.0 wt% once a day
[7] = Cetuximab 100 mg/kg twice a week via tail vein, ointment 0.2 wt% once a day, 10 days
[8] = Panitumumab 10 mg/kg twice a week via tail vein, ointment 5.0 wt% once a day, 14 days
[9] = EAI045 80 mg/kg once a day, 8 dosing modelling days, ointment 10.0 wt% once a day
[10] = Osimertinib 60 mg/kg twice a day, 7 dosing modelling days, ointment 0.5 wt% once a day
[11] = Osimertinib 60 mg/kg twice a day, 7 dosing modelling days, ointment 5.0 wt% once a day
[12] = Afatinib 40 mg/kg once a day, 6 dosing modelling days, ointment 5.0 wt% once a day
[13] = EAI045 80 mg/kg once a day, 8 dosing modelling days, ointment 5.0 wt% once a day
[14] = Osimertinib 60 mg/kg twice a day, 7 dosing modelling days, ointment 1.0 wt% once a day

Compound: C[C@@H]1CN(C(=O)CC#N)[C@@]12CCN(c1ncnc3c1ccn3C(=O)N(C)CCOC(=O)C1CC1)C2 [Compound A27]
- Control Rate ([1]; Cetuximab 102 mg/kg twice a week via tail vein, ointment 1.0 wt%, 10 days of drug application): 30%
- Control Rate [1, 5]: 80%
- Control Rate ([1]; Panitumumab 6 mg/kg twice a week via tail vein, ointment 0.1 wt%, 8 days of drug application): 60%
- Control Rate ([1]; Panitumumab 6 mg/kg twice a week via tail vein, ointment 3.0 wt%, 8 days of drug application): 90%
- Control Rate [2, 6]: 60%
- Control Rate ([2]; EAI045 80 mg/kg once a day, 8 dosing modelling days, ointment 3.0 wt% once a day): 80%
- Control Rate ([2]; Osimertinib 60 mg/kg twice a day, 7 dosing modelling days, ointment 0.2 wt% once a day): 40%
- Control Rate ([2]; Osimertinib 60 mg/kg twice a day, 7 dosing modelling days, ointment 4.0 wt% once a day): 100%
- Control Rate [3, 7]: 20%
- Control Rate ([3]; Cetuximab 100 mg/kg twice a week via tail vein, ointment 3.0 wt% once a day, 10 days): 40%
- Control Rate ([3]; Panitumumab 10 mg/kg twice a week via tail vein, ointment 1.0 wt% once a day, 14 days): 45%
- Control Rate [3, 8]: 70%

Compound: C[C@@H]1CN(C(=O)CC#N)[C@@]12CCN(c1ncnc3c1ccn3C(=O)N(C)CCOC(=O)C1CCCCC1)C2 [Compound A28]
- Control Rate ([1]; Cetuximab 102 mg/kg twice a week via tail vein, ointment 0.3 wt%, 10 days of drug application): 40%
- Control Rate [1, 5]: 70%
- Control Rate ([1]; Panitumumab 6 mg/kg twice a week via tail vein, ointment 2.0 wt%, 8 days of drug application): 60%
- Control Rate ([1]; Panitumumab 6 mg/kg twice a week via tail vein, ointment 10.0 wt%, 8 days of drug application): 100%
- Control Rate ([2]; BPI-7711 60 mg/kg once a day, 6 dosing modelling days, ointment 3.0 wt% once a day): 80%
- Control Rate ([2]; Dacomitinib 10 mg/kg once a day, 5 dosing modelling days, ointment 0.2 wt% once a day): 30%
- Control Rate ([2]; Dacomitinib 10 mg/kg once a day, 5 dosing modelling days, ointment 2.0 wt% once a day): 60%
- Control Rate ([2]; Dacomitinib 10 mg/kg once a day, 5 dosing modelling days, ointment 5.0 wt% once a day): 80%
- Control Rate ([2]; Dacomitinib 10 mg/kg once a day, 5 dosing modelling days, ointment 10.0 wt% once a day): 60%
- Control Rate [2, 6]: 40%
- Control Rate [2, 9]: 100%
- Control Rate ([2]; Gefitinib 80 mg/kg twice a day, 10 dosing modelling days, ointment 1.0 wt% once a day): 30%
- Control Rate ([2]; Gefitinib 80 mg/kg twice a day, 10 dosing modelling days, ointment 5.0 wt% once a day): 30%
- Control Rate ([2]; Larotinib 20 mg/kg once a day, 6 dosing modelling days, ointment 3.0 wt% once a day): 40%
- Control Rate [2, 10]: 20%
- Control Rate [2, 11]: 60%
- Control Rate [3, 7]: 30%
- Control Rate ([3]; Cetuximab 100 mg/kg twice a week via tail vein, ointment 5.0 wt% once a day, 10 days): 70%
- Control Rate ([3]; Panitumumab 10 mg/kg twice a week via tail vein, ointment 0.2 wt% once a day, 14 days): 45%
- Control Rate [3, 8]: 100%

Compound: C[C@@H]1CN(C(=O)CC#N)[C@@]12CCN(c1ncnc3c1ccn3C(=O)N(C)CCOC(=O)c1ccn[nH]1)C2 [Compound A31]
- Reduction Rate of Ear Swelling ([4]; ointment 1.0 wt%): 16%
- Reduction Rate of Ear Swelling ([4]; ointment 5.0 wt%): 28%
- Control Rate ([2]; Afatinib 40 mg/kg once a day, 6 dosing modelling days, ointment 0.1 wt% once a day): 10%
- Control Rate ([2]; Afatinib 40 mg/kg once a day, 6 dosing modelling days, ointment 1.0 wt% once a day): 60%
- Control Rate ([2]; Afatinib 40 mg/kg once a day, 6 dosing modelling days, ointment 3.0 wt% once a day): 70%
- Control Rate [2, 12]: 90%
- Control Rate ([2]; Afatinib 40 mg/kg once a day, 6 dosing modelling days, ointment 10.0 wt% once a day): 90%
- Control Rate ([2]; EAI045 80 mg/kg once a day, 8 dosing modelling days, ointment 0.1 wt% once a day): 20%
- Control Rate [2, 13]: 70%
- Control Rate [2, 9]: 90%
- Control Rate ([2]; Gefitinib 80 mg/kg twice a day, 10 dosing modelling days, ointment 0.3 wt% once a day): 20%
- Control Rate ([2]; Gefitinib 80 mg/kg twice a day, 10 dosing modelling days, ointment 3.0 wt% once a day): 40%
- Control Rate ([2]; Gefitinib 80 mg/kg twice a day, 10 dosing modelling days, ointment 10.0 wt% once a day): 90%
- Control Rate [2, 10]: 40%
- Control Rate [2, 14]: 60%
- Control Rate [2, 11]: 70%

Compound: CN(CCOC(=O)C1CCCCC1)C(=O)n1ccc2c(-c3cnn(C4(CC#N)CN(C5CCN(C(=O)c6ccnc(C(F)(F)F)c6F)CC5)C4)c3)ncnc21 [Compound A36]
- Reduction Rate of Ear Swelling ([4]; ointment 1.0 wt%): 29%
- Reduction Rate of Ear Swelling ([4]; ointment 5.0 wt%): 34%
- Control Rate ([2]; Afatinib 40 mg/kg once a day, 6 dosing modelling days, ointment 0.5 wt% once a day): 20%
- Control Rate [2, 12]: 60%
- Control Rate ([2]; BPI-7711 60 mg/kg once a day, 6 dosing modelling days, ointment 5.0 wt% once a day): 30%
- Control Rate ([2]; EAI045 80 mg/kg once a day, 8 dosing modelling days, ointment 0.5 wt% once a day): 20%
- Control Rate [2, 13]: 40%
- Control Rate ([2]; Larotinib 20 mg/kg once a day, 6 dosing modelling days, ointment 5.0 wt% once a day): 60%
- Control Rate [2, 14]: 30%
- Control Rate ([2]; Osimertinib 60 mg/kg twice a day, 7 dosing modelling days, ointment 10.0 wt% once a day): 50%
